Measurements from ChEMBL document CHEMBL1201862, “PubChem BioAssay data set” (2004).
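Test compounds were applied to cells in 96-well plates for 48 hours at 5 doses. GI50 is the concentration that inhibits growth by half.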 Active and inactive are the calls of the source. No stated cut-off is given here; in the data, active = GI50 up to about 1.1 µM and inactive = higher.

Tests used:
Assay in all cases: NCI-60 cell line screen, 48 h
[1] = system: CCRF-CEM
[2] = system: COLO 205
[3] = system: IGROV-1
[4] = system: MOLT-4
[5] = system: SK-MEL-28
[6] = system: NCI-H460
[7] = system: SF-268
[8] = system: HCT-15
[9] = system: A549
[10] = system: Malme-3M
[11] = system: NCI-H226
[12] = system: MDA-MB-435
[13] = system: SR
[14] = system: SW-620
[15] = system: EKVX
[16] = system: TK-10
[17] = system: CAKI-1
[18] = system: T47D
[19] = system: HOP-62
[20] = system: HCT-116
[21] = system: SF-539
[22] = system: HT-29
[23] = system: A498
[24] = system: LOX IMVI
[25] = system: ACHN
[26] = system: NCI/ADR-RES
[27] = system: MCF7
[28] = system: OVCAR-3
[29] = system: NCI-H23
[30] = system: SK-OV-3
[31] = system: HL-60
[32] = system: MDA-N
[33] = system: Hs-578T
[34] = system: UACC-257
[35] = system: HCC 2998
[36] = system: KM12
[37] = system: HOP-92
[38] = system: RPMI-8226
[39] = system: PC-3
[40] = system: SN12C
[41] = system: DU-145
[42] = system: 786-0
[43] = system: SF-295
[44] = system: OVCAR-5
[45] = system: OVCAR-8
[46] = system: MDA-MB-231
[47] = system: M14
[48] = system: U-251
[49] = system: UO-31
[50] = system: SK-MEL-5
[51] = system: SNB-19
[52] = system: BT-549
[53] = system: K562
[54] = system: SK-MEL-2
[55] = system: UACC-62
[56] = system: RXF 393
[57] = system: OVCAR-4
[58] = system: SNB-75

`CCCCCCCCCCCCCCCCCCNC(=S)NC=C1C(=O)c2ccccc2C1=O` was tested, and the GI50 [1] was 5.02 µM (inactive), the GI50 [2] was 15.7 µM (inactive) and the GI50 [3] was 1.4 µM (inactive). For the same compound, the GI50 [4] was 4.03 µM (inactive), the GI50 [5] was 16.9 µM (inactive) and the GI50 [6] was 12.1 µM (inactive). For the same compound, the GI50 [7] was 5.62 µM (inactive), the GI50 [8] was 10.2 µM and the GI50 [9] was 13.2 µM (inactive). The GI50 [10] was 14.7 µM (inactive), the GI50 [11] was 8.32 µM (inactive) and the GI50 [12] was 15.9 µM (inactive). The GI50 [13] was 2.75 µM (inactive), the GI50 [14] was 11.1 µM (inactive) and the GI50 [15] was 13 µM (inactive). For the same compound, the GI50 [16] was 16.6 µM (inactive), the GI50 [17] was 15.5 µM (inactive) and the GI50 [18] was 15.8 µM (inactive). For the same compound, the GI50 [19] was 9.86 µM (inactive), the GI50 [20] was 4.08 µM (inactive) and the GI50 [21] was 18.3 µM (inactive). The GI50 [22] was 11.5 µM (inactive), the GI50 [23] was 19.2 µM (inactive) and the GI50 [24] was 3.9 µM (inactive). The GI50 [25] was 10.9 µM (inactive), the GI50 [26] was 14.2 µM (inactive) and the GI50 [27] was 12 µM (inactive). For the same compound, the GI50 [28] was 13.8 µM (inactive), the GI50 [29] was 15.6 µM (inactive) and the GI50 [30] was 16 µM (inactive). For the same compound, the GI50 [31] was 3.87 µM (inactive), the GI50 [32] was 16 µM (inactive) and the GI50 [33] was 16.3 µM (inactive). The GI50 [34] was 17.9 µM (inactive), the GI50 [35] was 2.13 µM (inactive) and the GI50 [36] was 10.7 µM (inactive). For the same compound, the GI50 [37] was 3 µM (inactive), the GI50 [38] was 14.2 µM (inactive) and the GI50 [39] was 3.83 µM (inactive). For the same compound, the GI50 [40] was 16 µM (inactive), the GI50 [41] was 6.12 µM (inactive) and the GI50 [42] was 9.12 µM (inactive). For the same compound, the GI50 [43] was 13.6 µM (inactive), the GI50 [44] was 13.4 µM (inactive) and the GI50 [45] was 13.2 µM (inactive). For the same compound, the GI50 [46] was 10.9 µM (inactive), the GI50 [47] was 10.3 µM (inactive) and the GI50 [48] was 4.73 µM (inactive). For the same compound, the GI50 [49] was 10.3 µM (inactive), the GI50 [50] was 18.2 µM (inactive) and the GI50 [51] was 17.3 µM (inactive). The GI50 [52] was 15.7 µM (inactive).
`COc1cccc(CC2Cc3ccccc3CC(=O)N2)c1` (stereo unspecified) was tested, and the GI50 [1] was 58.3 µM (inactive), the GI50 [2] was 74.1 µM (inactive) and the GI50 [3] was 16.9 µM (inactive). For the same compound, the GI50 [4] was 31.3 µM (inactive), the GI50 [5] was 54.2 µM (inactive) and the GI50 [6] was 20.9 µM (inactive). For the same compound, the GI50 [7] was 46.2 µM (inactive), the GI50 [53] was 80 µM (inactive) and the GI50 [54] was 42.2 µM (inactive). The GI50 [9] was 34.1 µM (inactive), the GI50 [11] was 20.8 µM (inactive) and the GI50 [12] was 32.7 µM (inactive). The GI50 [55] was 39.8 µM (inactive), the GI50 [13] was > 100 µM (inactive) and the GI50 [56] was 26.8 µM (inactive). The GI50 [14] was 85.1 µM (inactive), the GI50 [15] was 35.6 µM (inactive) and the GI50 [16] was 29.9 µM (inactive). For the same compound, the GI50 [17] was 16.6 µM (inactive), the GI50 [18] was 41.5 µM (inactive) and the GI50 [57] was > 100 µM (inactive). For the same compound, the GI50 [19] was 9.18 µM (inactive), the GI50 [20] was 49 µM (inactive) and the GI50 [21] was 88.5 µM (inactive). The GI50 [22] was 92.7 µM (inactive), the GI50 [24] was 10.1 µM (inactive) and the GI50 [25] was 76.2 µM (inactive). The GI50 [26] was 20 µM (inactive), the GI50 [27] was 30.4 µM (inactive) and the GI50 [28] was 20.4 µM (inactive). For the same compound, the GI50 [29] was 42.6 µM (inactive), the GI50 [30] was 62.8 µM (inactive) and the GI50 [31] was 40.1 µM (inactive). The GI50 [32] was 48.1 µM (inactive), the GI50 [58] was > 100 µM (inactive) and the GI50 [33] was 21.4 µM (inactive). For the same compound, the GI50 [34] was 29.2 µM (inactive), the GI50 [35] was 72.1 µM (inactive) and the GI50 [36] was 22 µM (inactive). The GI50 [37] was 24.1 µM (inactive), the GI50 [38] was 37.6 µM (inactive) and the GI50 [39] was 31 µM (inactive). For the same compound, the GI50 [40] was 69 µM (inactive), the GI50 [41] was > 100 µM (inactive) and the GI50 [43] was 34.9 µM (inactive). The GI50 [44] was 11.7 µM (inactive), the GI50 [45] was 53.8 µM (inactive) and the GI50 [46] was 10 µM (inactive). For the same compound, the GI50 [47] was 14 µM (inactive), the GI50 [48] was 47.1 µM (inactive) and the GI50 [49] was 20.8 µM (inactive). For the same compound, the GI50 [50] was 20.6 µM (inactive), the GI50 [51] was 90.8 µM (inactive) and the GI50 [52] was 28 µM (inactive).
